Data published in patent publication US20150246938A1, “NOVEL OLEFIN DERIVATIVE” (SHIONOGI & CO., LTD., priority 2011, published 2015).
pIC50: −log10 of the molar value.

The molecules below were run against T1, recombinant human ACC2 (Homo sapiens, UniProt O00763) (assay: Measurement of inhibitory activity on human ACC2 (MALDI-TOF MS, acetyl CoA to malonyl CoA conversion)). Settings: not given.
T1 construct: a cDNA encoding human ACC2 (27-2458) was cloned from human kidney cDNA library (Clontech); His-tag (N); made in house; host or cells: Sf-9 insect cells (Bac-to-Bac baculovirus)
Format: biochemical

T1 sequence (O00763 27-2458): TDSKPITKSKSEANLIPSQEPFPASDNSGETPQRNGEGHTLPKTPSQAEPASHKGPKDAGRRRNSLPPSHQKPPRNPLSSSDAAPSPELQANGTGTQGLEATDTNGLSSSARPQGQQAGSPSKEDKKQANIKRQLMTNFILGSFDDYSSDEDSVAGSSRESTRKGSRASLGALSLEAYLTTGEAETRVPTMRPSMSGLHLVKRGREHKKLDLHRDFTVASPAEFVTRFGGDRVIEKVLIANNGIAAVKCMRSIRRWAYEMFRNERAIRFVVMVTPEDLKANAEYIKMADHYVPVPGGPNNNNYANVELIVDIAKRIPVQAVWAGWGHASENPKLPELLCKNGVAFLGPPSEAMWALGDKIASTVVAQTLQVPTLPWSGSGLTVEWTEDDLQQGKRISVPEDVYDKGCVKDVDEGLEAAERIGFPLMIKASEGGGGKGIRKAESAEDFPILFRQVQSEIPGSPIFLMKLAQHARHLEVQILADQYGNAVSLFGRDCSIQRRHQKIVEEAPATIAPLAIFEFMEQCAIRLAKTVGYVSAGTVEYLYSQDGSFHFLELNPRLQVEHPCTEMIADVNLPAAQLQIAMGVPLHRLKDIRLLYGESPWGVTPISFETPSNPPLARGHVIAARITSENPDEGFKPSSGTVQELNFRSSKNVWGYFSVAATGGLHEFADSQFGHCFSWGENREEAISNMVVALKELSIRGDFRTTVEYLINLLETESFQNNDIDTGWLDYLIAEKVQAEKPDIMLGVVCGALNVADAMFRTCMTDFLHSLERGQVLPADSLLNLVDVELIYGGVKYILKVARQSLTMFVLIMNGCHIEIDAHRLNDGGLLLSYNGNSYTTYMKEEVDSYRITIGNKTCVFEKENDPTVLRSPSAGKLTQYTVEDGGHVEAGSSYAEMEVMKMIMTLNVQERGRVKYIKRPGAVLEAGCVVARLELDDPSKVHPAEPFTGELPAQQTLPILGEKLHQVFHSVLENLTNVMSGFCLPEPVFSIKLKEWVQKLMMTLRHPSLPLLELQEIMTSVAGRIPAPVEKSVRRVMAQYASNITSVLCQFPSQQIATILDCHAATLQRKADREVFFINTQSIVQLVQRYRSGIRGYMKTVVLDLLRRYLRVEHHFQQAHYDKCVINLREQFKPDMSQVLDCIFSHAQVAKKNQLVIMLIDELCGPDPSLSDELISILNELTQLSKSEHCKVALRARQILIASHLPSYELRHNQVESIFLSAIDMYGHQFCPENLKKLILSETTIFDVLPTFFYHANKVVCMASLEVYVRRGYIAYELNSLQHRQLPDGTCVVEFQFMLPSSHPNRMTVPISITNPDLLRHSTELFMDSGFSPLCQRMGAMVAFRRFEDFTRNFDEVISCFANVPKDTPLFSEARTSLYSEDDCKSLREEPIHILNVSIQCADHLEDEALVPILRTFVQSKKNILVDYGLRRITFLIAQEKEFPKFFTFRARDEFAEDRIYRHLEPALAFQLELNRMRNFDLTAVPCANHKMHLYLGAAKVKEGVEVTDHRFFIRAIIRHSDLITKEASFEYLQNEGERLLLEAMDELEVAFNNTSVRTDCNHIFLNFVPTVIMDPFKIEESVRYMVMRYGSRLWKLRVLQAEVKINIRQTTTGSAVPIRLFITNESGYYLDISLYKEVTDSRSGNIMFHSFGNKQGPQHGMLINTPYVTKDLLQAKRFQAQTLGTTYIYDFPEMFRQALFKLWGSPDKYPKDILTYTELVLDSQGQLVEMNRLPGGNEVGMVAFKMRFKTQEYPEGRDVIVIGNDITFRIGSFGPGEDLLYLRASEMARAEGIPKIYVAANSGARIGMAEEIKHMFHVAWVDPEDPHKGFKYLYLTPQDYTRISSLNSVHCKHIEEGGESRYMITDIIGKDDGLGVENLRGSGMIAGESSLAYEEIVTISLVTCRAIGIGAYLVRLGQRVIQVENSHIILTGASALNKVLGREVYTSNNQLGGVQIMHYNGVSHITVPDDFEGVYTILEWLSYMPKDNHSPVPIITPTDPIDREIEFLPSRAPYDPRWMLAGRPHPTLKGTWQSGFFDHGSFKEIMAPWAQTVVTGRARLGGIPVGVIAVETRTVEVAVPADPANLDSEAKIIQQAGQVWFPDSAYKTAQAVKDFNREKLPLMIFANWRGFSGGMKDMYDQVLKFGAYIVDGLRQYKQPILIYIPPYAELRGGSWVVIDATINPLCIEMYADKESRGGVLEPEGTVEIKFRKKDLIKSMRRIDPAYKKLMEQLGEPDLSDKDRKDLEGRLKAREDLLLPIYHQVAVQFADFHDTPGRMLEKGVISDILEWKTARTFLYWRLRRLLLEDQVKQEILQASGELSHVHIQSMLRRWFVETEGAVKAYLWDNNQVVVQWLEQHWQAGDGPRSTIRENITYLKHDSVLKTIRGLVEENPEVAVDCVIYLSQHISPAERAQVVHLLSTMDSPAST

In order of falling pIC50:
1. COc1c(OCC2CC2)ccc(Oc2cnc(/C=C/[C@H](C)NC(C)=O)cn2)c1Cl [Compound I-394]  7.92
2. CC(=O)N[C@@H](C)/C=C/c1ccc(Oc2ccc3c(c2)CCC3)nc1 [Compound I-397]  7.82
3. CC(=O)N[C@@H](C)/C=C/c1ccc(Oc2ccc(CC3CC3)cc2Cl)nc1 [Compound I-380]  7.66
4. CCC(F)(F)c1ccc(Oc2ccc(/C=C/[C@H](C)NC(C)=O)cn2)c(Cl)c1 [Compound I-389]  7.62
5. CC(=O)N[C@@H](C)/C=C/c1ccc(Oc2ccc(C(C)(C)C(F)(F)F)cc2Cl)nc1 [Compound I-409]  7.60
6. CC(=O)N[C@@H](C)/C=C/c1ccc(Oc2cc3c(cc2Cl)CCC3)nc1 [Compound I-426]  7.59
7. CC(=O)N[C@@H](C)/C=C/c1ccc(Oc2ccc(N3CCCCC3)cc2Cl)nc1 [Compound I-383]  7.54
8. CC(=O)N[C@@H](C)/C=C/c1ccc(Oc2ccc(-c3nc4ccccc4o3)cc2Cl)nc1 [Compound I-414]  7.44
9. CC(=O)N[C@@H](C)/C=C/c1ccc(Oc2ccc3nc(C)sc3c2)nc1 [Compound I-425]  7.40
10. CC(=O)N[C@@H](C)/C=C/c1ccc(Oc2ccc3c(c2)CCCC3)nc1 [Compound I-398]  7.37
11. CCCc1ccc(Oc2ccc(/C=C/[C@H](C)NC(=O)c3ccnc(C(=O)NCCO)c3)cn2)c(Cl)c1 [Compound I-391]  7.33
12. CCC(F)(F)c1ccc(Oc2ccc(/C=C/[C@H](C)NC(N)=O)cn2)c(Cl)c1 [Compound I-393]  7.32
13. CC(=O)N[C@@H](C)/C=C/c1ccc(Oc2ccc(-c3ncc(C(F)(F)F)cn3)cc2Cl)nc1 [Compound I-419]  7.32
14. CC(=O)N[C@@H](C)/C=C/c1ccc(Oc2ccc3c(c2)CCO3)nc1 [Compound I-429]  7.30
15. CC(=O)N[C@@H](C)/C=C/c1ccc(Oc2ccc(-c3ccc(C(F)(F)F)cn3)cc2Cl)nc1 [Compound I-421]  7.28
16. CC(=O)N[C@@H](C)/C=C/c1ccc(Oc2ccc(C(F)(F)C(C)C)cc2Cl)nc1 [Compound I-396]  7.26
17. CC(=O)N[C@@H](C)/C=C/c1ccc(Oc2ccc(C3CCC3)cc2Cl)nc1 [Compound I-401]  7.25
18. CC(=O)N[C@@H](C)/C=C/c1ccc(Oc2ccc(-c3cnc(C(F)(F)F)cn3)cc2Cl)nc1 [Compound I-417]  7.24
19. CC(C)C(F)(F)c1ccc(Oc2ccc(/C=C/[C@H](C)NC(N)=O)cn2)c(Cl)c1 [Compound I-399]  7.17
20. CCCc1ccc(Oc2ncc(/C=C/[C@H](C)NC(C)=O)s2)c(Cl)c1 [Compound I-411]  7.11
21. CC(=O)N[C@@H](C)/C=C/c1ccc(Oc2ccc(-c3ncccn3)cc2Cl)nc1 [Compound I-418]  7.01
22. CC(=O)N[C@@H](C)/C=C/c1ccc(Oc2ccc(-c3nc4ccccc4s3)cc2Cl)nc1 [Compound I-415]  6.92
23. CC(=O)N[C@@H](C)/C=C/c1ccc(Oc2ccc3sc(C)nc3c2)nc1 [Compound I-424]  6.85
24. CCOc1ccc(Oc2ccc(/C=C/[C@H](C)CC(=O)NC)cn2)c(Cl)c1 [Compound I-410]  6.82
25. CCCc1cc(Cl)c(Oc2ccc(/C=C/[C@H](C)NC(C)=O)cn2)c(Cl)c1 [Compound I-385]  6.80
26. CC(=O)N[C@@H](C)/C=C/c1ccc(Oc2ccc(-c3nccs3)cc2Cl)nc1 [Compound I-416]  6.77
27. CC(=O)N[C@@H](C)/C=C/c1cnc(Oc2ccc(C(C)(C)C(F)(F)F)cc2Cl)cn1 [Compound I-428]  6.77
28. CCCc1ccc(Oc2ccc(/C=C/[C@H](C)NC(C)=O)cn2)cc1C#N [Compound I-404]  6.72
29. CC(=O)N[C@@H](C)/C=C/c1ccc(Oc2ccc(-c3cnccn3)cc2Cl)nc1 [Compound I-412]  6.70
30. CC(=O)N[C@@H](C)/C=C/c1cnc(Oc2ccc(C(C)(C)C(F)(F)F)cc2Cl)nc1 [Compound I-427]  6.70
31. CCCc1ccc(Oc2ccc(/C=C/[C@H](C)NC(=O)CO)cn2)c(Cl)c1 [Compound I-384]  6.55
32. CC(=O)N[C@@H](C)/C=C/c1cnc(Oc2cc(O)c(OCC3CC3)cc2Cl)nc1 [Compound I-406]  6.52
33. CC(=O)N[C@@H](C)/C=C/c1cc(Oc2ccc(OCC3CC3)cc2Cl)no1 [Compound I-381]  6.44
34. CCCc1ccc(Oc2ccc(/C=C/[C@H](C)NC(=O)CNC(=O)OC(C)(C)C)cn2)c(Cl)c1 [Compound I-386]  6.40
35. CCCc1ccc(Oc2ccc(/C=C/[C@H](C)NC(C)=O)cn2)c(C#N)c1 [Compound I-403]  6.35
36. CCCc1cc(Cl)c(Oc2ccc(/C=C/[C@H](C)NC(N)=O)cn2)c(Cl)c1 [Compound I-387]  6.25
37. CCCc1ccc(Oc2ccc(/C=C/[C@H](C)NC(=O)CNC(C)=O)cn2)c(Cl)c1 [Compound I-392]  6.01
38. CC(=O)N[C@@H](C)/C=C/n1cc(Oc2ccc(OCC3CC3)cc2Cl)cn1 [Compound I-402]  5.96
39. CCCc1ccc(Oc2ccc(/C=C/[C@H](C)NC(=O)CC(=O)OC(C)(C)C)cn2)c(Cl)c1 [Compound I-405]  5.92
40. CC(=O)N[C@@H](C)/C=C/c1ccc(Oc2ccc(N3CCOCC3)cc2Cl)nc1 [Compound I-382]  5.89
41. CCCc1ccc(Oc2ccc(/C=C/[C@H](C)NC(=O)Cc3ccccn3)cn2)c(Cl)c1 [Compound I-422]  5.89
42. CCCn1cc(Oc2ccc(/C=C/[C@H](C)NC(C)=O)cn2)cn1 [Compound I-388]  5.70
43. COc1cc(Oc2ncc(/C=C/[C@H](C)NC(C)=O)cn2)c(Cl)cc1OCC1CC1 [Compound I-407]  5.68
44. CCCc1ccc(Oc2ccc(/C=C/[C@H](C)NC(C)=O)cn2)c(-c2ccccc2)c1 [Compound I-408]  5.64
45. CCOc1ccc(Oc2ncc(/C=C/[C@H](C)NC(C)=O)cc2N)c(Cl)c1 [Compound I-430]  5.57
46. CCCc1ccc(Oc2ccc(/C=C/[C@H](C)NC(=O)Cc3nccs3)cn2)c(Cl)c1 [Compound I-423]  5.52
47. CCC1(c2ccc(Oc3ccc(/C=C/[C@H](C)NC(C)=O)cn3)c(Cl)c2)COC1 [Compound I-400]  5.49
48. CC(=O)N[C@@H](C)/C=C/c1cnc(Oc2ccc(OCC3CC3O)cc2Cl)nc1 (some centres unmarked) [Compound I-379]  5.43
49. CC(=O)N[C@@H](C)/C=C/c1cc(Oc2ccc(OCC3CC3)cc2Cl)nn1C [Compound I-395]  5.38

Same assay, conditions: inhibition activity on human ACC2, Table 82; read-out: IC50

In order of rising pIC50:
1. CC(=O)N[C@@H](C)/C=C/c1ccc(Oc2ccc(-c3ccc(C#N)nc3)cc2Cl)nc1 [Compound I-376]  5.96
2. CCCc1ccc(Oc2ccc(/C=C/[C@H](C)NC(=O)C(=O)OCC)cn2)c(Cl)c1 [Compound I-374]  6.11
3. CCCc1ncc(Oc2ccc(/C=C/[C@H](C)NC(C)=O)cn2)cc1C [Compound I-370]  6.55
4. CCCc1ccc(Oc2ccc(/C=C/[C@H](C)NC(C)=O)cc2)nc1 [Compound I-368]  6.96
5. CC(=O)N[C@@H](C)/C=C/c1ccc(Oc2ccc(CC(C)(C)C)cc2Cl)nc1 [Compound I-371]  7.22
6. CCCc1ccc(Oc2ccc(/C=C/[C@H](C)NC(=O)COC(C)=O)cn2)c(Cl)c1 [Compound I-375]  7.24
7. CC(=O)N[C@@H](C)/C=C/c1ccc(Oc2ccc(-c3ccc(C#N)cc3)c(Cl)c2)nc1 [Compound I-377]  7.41
8. CCCc1cc(F)c(Oc2ccc(/C=C/[C@H](C)NC(C)=O)cn2)c(Cl)c1 [Compound I-372]  7.48
9. CCC(F)c1ccc(Oc2ccc(/C=C/[C@H](C)NC(C)=O)cn2)c(Cl)c1 (some centres unmarked) [Compound I-373]  7.60
10. CC(=O)N[C@@H](C)/C=C/c1ccc(Oc2ccc(C3(C)CC3)cc2Cl)nc1 [Compound I-369]  7.62
11. CC(=O)N[C@@H](C)/C=C/c1ccc(Oc2ccc(C3=CCC4(CC3)CC4)c(Cl)c2)nc1 [Compound I-378]  7.80

Same assay, conditions: inhibition activity on human ACC2, Table 84; read-out: IC50

In order of rising pIC50:
1. CCOC(=O)c1cnc(Oc2ccc(Oc3ccc(/C=C/[C@H](C)NC(C)=O)cn3)c(Cl)c2)s1 [Compound I-441]  6.16
2. CCCc1ccc(Oc2ncc(/C=C/[C@H](C)NC(C)=O)cn2)c(Cl)c1 [Compound I-432]  6.28
3. CC(=O)N[C@@H](C)/C=C/c1cnc(Oc2ccc(OCC3CC3)cc2Cl)c(C#N)c1 [Compound I-445]  6.59
4. CC(=O)N[C@@H](C)/C=C/c1ccc(Oc2ccc3c(c2)OCC3)nc1 [Compound I-448]  6.74
5. CC(=O)N[C@@H](C)/C=C/c1ccc(Oc2ccc(C3(C)CC3(F)F)cc2Cl)nc1 (some centres unmarked) [Compound I-434]  7.00
6. CCC(=O)c1ccc(Oc2ncc(/C=C/[C@H](C)NC(C)=O)s2)c(Cl)c1 [Compound I-431]  7.07
7. CCCc1ccc(Oc2ccc(/C=C/[C@H](C)NC(C)=O)cn2)c(C(F)(F)F)c1 [Compound I-439]  7.09
8. CCOc1ccc(Oc2ncc(/C=C/[C@H](C)NC(C)=O)cc2F)c(Cl)c1 [Compound I-446]  7.14
9. CCOc1ccc(Oc2ncc(/C=C/[C@H](C)NC(C)=O)cc2C)c(Cl)c1 [Compound I-442]  7.19
10. CCC(CC)c1ccc(Oc2ccc(/C=C/[C@H](C)NC(C)=O)cn2)c(Cl)c1 [Compound I-436]  7.24
11. CCCc1ccc(Oc2cnc(/C=C/[C@H](C)NC(C)=O)cn2)c(Cl)c1 [Compound I-433]  7.31
12. CC(=O)N[C@@H](C)/C=C/c1ccc(Oc2ccc3c(c2)CCCO3)nc1 [Compound I-444]  7.38
13. CCCc1ccc(Oc2ccc(/C=C/[C@H](C)NC(C)=O)cn2)c(C)c1 [Compound I-437]  7.48
14. CC(=O)N[C@@H](C)/C=C/c1cnc(Oc2ccc(OCC3CC3)cc2Cl)c(F)c1 [Compound I-447]  7.60
15. CC(=O)N[C@@H](C)/C=C/c1ccc(Oc2ccc3c(c2Cl)CCC3)nc1 [Compound I-435]  7.62
16. CC(=O)N[C@@H](C)/C=C/c1cnc(Oc2ccc(OCC3CC3)cc2Cl)c(C)c1 [Compound I-443]  7.66
17. CCCc1ccc(Oc2ccc(/C=C/[C@H](C)NC(C)=O)cn2)c(Cl)c1Cl [Compound I-440]  7.70
